{"source": "paper PMC13059744", "about": "(mBio, 2026)", "tested_on": "cabABC promoter (PcabABC-luc) in S. mitis G22", "assay": "cabABC expression, PcabABC-luc reporter in S. mitis G22", "assay_type": "cell-based, Streptococcus mitis", "details": "after CSPG22 treatment in acidic medium; Fig. S3B", "data": [{"sequence": "ESRLSRLLRDFIFQIKQ [CSPG22]", "values": [{"measurement": "time of peak cabABC expression post-induction", "result": "approximately 70 min"}]}]}
